Our source for the Kd values is paper PMC3793860, “A role for the vesicle-associated tubulin binding protein ARL6 (BBS3) in flagellum extension in Trypanosoma brucei” (Biochimica et Biophysica Acta, 2012).

Structures are written as SMILES.

The experiment deals with T1, TbARL6 (Trypanosoma brucei, UniProt Q57UH8).
T1 construct: gene Tb08.5H5.790; N-terminal His-tagged recombinant TbARL6 (nucleotides 1–570 of the ORF, Tb927.8.5060), expressed in E. coli
T1 sequence (Q57UH8 1-189): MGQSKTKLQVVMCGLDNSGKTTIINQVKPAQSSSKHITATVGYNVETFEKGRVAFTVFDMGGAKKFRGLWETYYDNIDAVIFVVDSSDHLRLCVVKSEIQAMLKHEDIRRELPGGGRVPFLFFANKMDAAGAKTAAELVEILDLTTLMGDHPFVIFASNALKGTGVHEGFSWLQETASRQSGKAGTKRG
In words: mant fluorescence titration, one-site non-linear regression; displacement kinetics. The class given is binding.

In general, Kd refers to a measure of binding affinity in units of concentration. Read a high Kd as a looser complex. Consider `CNc1ccccc1C(=O)O[C@H]1[C@@H](O)[C@H](n2cnc3c(=O)[nH]c(N)nc32)O[C@@H]1COP(=O)(O)OP(=O)(O)OP(=O)(O)O` [mGTP, mantGTP], for which binding was put at a Kd of 13.7 µM.
The result for `CNc1ccccc1C(=O)O[C@H]1[C@@H](O)[C@H](n2cnc3c(=O)[nH]c(N)nc32)O[C@@H]1COP(=O)(O)OP(=O)(O)O` [mGDP, mantGDP] reads 4.35 µM.
